# According to patent US7799915B2, “Anilino-pyrimidine analogs” (Wyeth LLC, priority 2004, dated 2010):
# System: IκBα in Hela cells treated with TNFα
# Assay: Western Analysis of IκBα
# Format: cell-based
# Conditions: Hela cells treated with compounds for 30 min before addition of TNFα (10 μg/ml), harvested after one hour; mouse anti-IκBα antibody
# Method: Hela cells are plated at 6-well plate for 24 hours and treated with compounds for 30 min before the addition of TNFα (10 μg/ml). After one hour, Hela cells are harvested in MPER reagent (Pierce, Rockford, Ill.) containing 400 mM NaCl. Protein from all samples is quantified by the Bradford method. Cell lysates containing 30 μg of protein are electrophoresed on a 12% SDS-PAGE gel and transferred to a PVDF membrane using a Bio Rad liquid transfer apparatus. The PVDF membrane is incubated in TBST (TBS with 0.1% Tween-20) with 3% milk for 15 minutes before the addition of the first antibody, mouse anti-IκBα (Santa Cruz). After overnight incubation, the PVDF membrane is washed 3 times with TBST and incubated with secondary antibodies coupled with horseradish peroxidase (Transduction Labs) for one hour. The PVDF membrane is then washed 3 times with TBST and protein is detected using an enhanced chemiluminescence detection system (Pierce).
row,Compound,result in Western analysis of IκBα
1,NS(=O)(=O)c1ccc(Nc2nccc(-c3ccc(Cl)s3)n2)cc1 [compound 4],positive result
2,NS(=O)(=O)c1ccc(Nc2nccc(-c3ccc(C#Cc4ccccn4)s3)n2)cc1 [compound 35],slightly positive result
3,O=S(=O)(NCCCO)c1ccc(Nc2nccc(-c3ccc(C(F)(F)F)cc3)n2)cc1 [compound 68],positive result
4,COc1ccc(-c2ccnc(Nc3ccc(S(=O)(=O)NCCN(C)C)c(C(F)(F)F)c3)n2)cc1F [compound 167],slightly positive result
5,COc1ccc(-c2ccnc(Nc3ccc(S(=O)(=O)NCCCN(C)C)c(Cl)c3)n2)cc1F [compound 173],positive result
6,NS(=O)(=O)c1ccc(Nc2nccc(-c3ccc(/C=C/CO)cc3)n2)cc1 [compound 272],positive result
